The term melting point denotes the temperature of the solid-liquid transition. Turning to `COc1cccc([C@H]2O[C@H](CC(=O)NCCc3oc(C(=O)O)cc3C(=O)O)C(=O)N(CC(C)(C)CO)c3ccc(Cl)cc32)c1OC`, the melting point was 155 to 157 °C.

In turn, `CN(C)n1nnc2cc3c(cc2c1=O)OC1CCCN1C3=O` (stereo not drawn) came in with a melting point of 180 °C.

`Cc1nc(N)nc(N)c1-c1ccc(Cl)cc1Cl`: the melting point came out at 222 °C.

`O=C1C[C@@H](C(=O)OCc2ccccc2)N(C(=O)OCc2ccccc2)C1` came in with a melting point of 55 to 56 °C.

Take `CN(C)Cc1ccccc1-c1ccc(N2CCc3c(C(F)(F)F)nn(-c4cccc(C(N)=O)c4)c3C2=O)cc1`: the melting point was 259 °C.

For `Cc1cc(C)nc(OC(C(=O)O)c2ccccc2)n1` (stereo not drawn), the melting point was found to be 148 °C.

The molecule `COc1ccc(C2=NNC(=O)CC2c2ccncc2)cc1` (stereo not drawn) had a melting point of 100 to 102 °C.

As to `N#Cc1cc(Cl)ccc1-c1ccc(C(O)CCC(=O)O)cc1` (stereo not drawn), the melting point lay within 168 to 169 °C.

For the molecule `COC(=O)c1csc(C)c1N`, the melting point was found to be 78 °C.

With `CSc1cc2c(cc1C(F)(F)F)N(C(=O)Nc1cccc(OCCCN(C)C)c1)CC2`, the melting point is 149 to 151 °C.

On to `O=C1C2CCCCN2C(=S)N1c1ccc(F)cc1F` (stereo not drawn), for which the melting point is 159 to 160 °C.

In turn, `O=C1CCC(c2ccccc2)(c2ccccc2)C2CN(C(Cc3ccccc3)=NC(c3ccccc3)c3ccccc3)CC12` (stereo not drawn) displayed a melting point of 172 °C.

In turn, `CCCCCCNC(=O)OC1CCN(C(=O)Oc2ccc(Oc3ccccc3)cc2)CC1` had a melting point of 77 to 82 °C.

In the case of `Cc1cc(-c2cc(C(F)(F)F)n3ncc(-c4ccnc(CO)c4)c3n2)ccc1C(F)(F)F`, the melting point is 231 °C.

In turn, `CCCCCCCCCCCCCCCCCC(=O)CO` had a melting point of 78 to 80 °C.

Molecule `O=Cc1cc2n(n1)-c1ccc(Cl)cc1C(c1ccccc1)NC2=O` (stereo not drawn) returned a melting point of 276 to 278 °C.

With `OCC(CO)(Cc1ccccc1)Cc1ccccc1`, the melting point was found to be 105 °C.

In the case of `CC(C)c1c(C=CC2CC(O)CC(O)O2)n(-c2ccc(Cl)cc2)c(=O)c2ccccc12` (mixture of isomers), the melting point was in the range of 181 to 185 °C.

Consider `CCN1C(=O)C(C)(C)C(=O)N(C)c2cc(CN(CCn3c(=O)ccc4ccccc43)Cc3cccnc3C)ccc21`, for which the melting point was in the range of 149 to 150 °C.

The molecule `CC(C)(C)c1ccc(C(O)CCCN2CCC(OC(c3ccccc3)c3ccccc3)CC2)cc1` (stereo not drawn) displayed a melting point of 129 to 131 °C.

Take `CCC(=O)NCCSC(=O)CC`: the melting point was in the range of 48 to 49 °C.

On to `CCCCCCCCCCCC(=O)c1cn(S(=O)(=O)c2ccc(C)cc2)c2ccccc12`, for which the melting point was 79 to 80 °C.

Molecule `COC(=O)Nc1cc(F)c(C#N)cc1F` came in with a melting point of 129 °C.

As to `COC(=O)C1=C(C(OC)OC)NC(C)=C(C(=O)OC(C)C)C1c1ccccc1[N+](=O)[O-]` (stereo not drawn), the melting point is 143 to 145 °C.

`COc1ccc(OCC(=O)c2ccccc2)c([N+](=O)[O-])c1` displayed a melting point of 88 to 90 °C.

`CCOC(=O)CCC(=O)c1c(COC(C)=O)c(COC(C)=O)cc2cc(OC)c(OC)cc12` registered a melting point of 85 to 87 °C.

As for `CC(C)(C)OC(=O)N1CCC(=CC(=O)NCc2ccc(F)c(F)c2)CC1`, the melting point lay within 102 to 105 °C.

For the molecule `O=C(NCC1CCCCC1)c1c(Cl)ccc2nc(N3CCC(c4nnn[nH]4)CC3)ccc12`, the melting point was in the range of 252 to 255 °C.

For `CC1N=C(c2ccccc2Cl)c2cc([N+](=O)[O-])ccc2N(C)C1=O` (single isomer, unassigned; (+)), the melting point was in the range of 156 to 158 °C.

`COc1ccc(CSc2cccc(C(=O)Nc3ccc(C#N)cn3)c2)cc1` had a melting point of 163 to 164 °C.

As for `CCOC(=O)c1nnc(C(=O)OCC)nn1`, the melting point is 85 to 90 °C.

`CCc1nc2c(-c3cc4cc(Br)oc4cc3C)ncnc2n1C(C1CC1)C1CC1` showed a melting point of 177 to 178 °C.

`CS(=O)c1ccc2nc3sc(C(=O)O)cn3c(=O)c2c1` (stereo not drawn) displayed a melting point of 243 to 244 °C.

As for `Nc1c(C2=CCCCC2)c(-c2ccccc2)nn1-c1ccccc1`, the melting point is 115 to 117 °C.

`N#CNC=Nc1ccc(-c2ncc[nH]2)cc1`: the melting point was in the range of 202 to 203 °C.

In the case of `CC(=O)OCc1ccc2oc(=O)c(C(=O)Oc3cc(Cl)ccc3Cl)cc2c1`, the melting point lay in the range of 168 to 171 °C.

In turn, `CC(C)NC1=NS(=O)(=O)c2sc(Br)cc2N1` came in with a melting point of 279 °C.

In the case of `O=C1NC(=O)C(Nc2ccc(CCNC[C@H](O)c3ccccc3)cc2)S1` (stereo partly drawn), the melting point amounted to 55 °C.

Molecule `CCOC(=O)Nc1ccc2c(c1)c1c(n2Cc2cccc(F)c2)CC[C@@H](NC(=O)C(C)C)C1` registered a melting point of 169 to 171 °C.

Molecule `O=c1[nH]c(-c2ccccc2)c(-c2ccncc2)o1` came in with a melting point of 300 °C.

For `Cn1c(SCc2ccccc2)nc2c(c1=O)NCN2C(c1ccccc1)(c1ccccc1)c1ccccc1`, the melting point lay in the range of 255 to 258 °C.

Turning to `CN(C)c1cc2c(cc1O)CCC1C2CCC2(C)C(=O)CCC12` (stereo not drawn), the melting point lay in the range of 160 to 161 °C.

Molecule `O=C(O)C(CCOc1ccccc1)CCOc1ccccc1` showed a melting point of 85 to 86 °C.

On to `CCCCn1c(=O)c2cn(S(=O)(=O)c3ccc(OC(F)(F)F)cc3)nc2n(CCCC)c1=O`, for which the melting point lay within 135 to 137 °C.

`CC(=O)NCC1CC(c2cc(F)c(-n3ccnc3)c(F)c2)=NO1` (single isomer, unassigned; (-)) registered a melting point of 168 to 169 °C.

For the molecule `Cc1ccc(-c2nnc(Cl)nc2-c2ccc(C)cc2)cc1`, the melting point was in the range of 126 to 130 °C.

For `C#CCOCc1cc(-c2ccc(C(F)(F)F)n(C)c2=O)c(F)cc1Cl`, the melting point is 99 to 101 °C.

The molecule `CCOC(=O)C1CCC2(CCN(S(=O)(=O)c3ccc(C)cc3)c3ccccc3C2)C1=O` (stereo not drawn) gave a melting point of 114 to 116 °C.

On to `Cc1ncsc1C(O)c1cccc(O)c1` (stereo not drawn), for which the melting point was in the range of 181 to 184 °C.

The molecule `CC1CCC2(OC1)OC1CC3C4CCC5CC(O[Si](C)(C)C)CCC5(C)C4CCC3(C)C1C2C` (stereo not drawn) showed a melting point of 197 to 198 °C.

As for `CCOCc1nc2c(N)nc3cc(-c4cccc(CO)c4)cnc3c2n1CC(C)(C)O`, the melting point was 186 to 187 °C.

As for `COC(=O)c1cc2c(N3CCN(CCC(C(=O)N4CCCCCC4)c4ccccc4)CC3)cccc2[nH]1` (stereo not drawn), the melting point is 152 to 168 °C.

In turn, `CCOC(=O)CC[C@H](NC(=O)c1ccc(N)cc1F)C(=O)OCC` gave a melting point of 130 to 132 °C.

In turn, `Nc1sc2c(c1C(=O)c1ccccc1)CCNC2` showed a melting point of 160 to 162 °C.

`CON=Cc1c(C(=O)OC)[nH]c2c(C)ccc(C)c12` returned a melting point of 107 to 108 °C.

Turning to `CCS(=O)(=O)N1CCN(c2ccc(NC(=O)c3cc(=O)c4cc(OC)cc(N5CCN(C)CC5)c4o3)cc2)CC1`, the melting point lay in the range of 232 to 234 °C.

`O=C(NC1CN2CCC1CC2)c1cccc2nc(-c3ccc(Cl)cc3)oc12` (stereo not drawn): the melting point fell in the range of 181 to 183 °C.

`Cc1c(O)ccc(Cl)c1N` yielded a melting point of 143 to 144 °C.

As to `O=C(Nc1cccc(-c2ccnc3c(C(=O)c4cccs4)cnn23)c1)c1cn[nH]c1`, the melting point was 165 to 170 °C.

`CC(C)n1c(=O)n(C(=O)NCC2(O)CCN(CC3(C(=O)O)CCCCC3)CC2)c2ccccc21` yielded a melting point of 184 °C.

Regarding `Cc1cccc2cc(C3CCN(C)CC3)[nH]c(=O)c12`, the melting point was in the range of 200 to 202 °C.

`C=CCOc1ccc2c(c1)C(=O)NC(C)(C)O2` gave a melting point of 137 to 138 °C.

`O=[N+]([O-])c1ccc(CN2CCNS2(=O)=O)cc1` displayed a melting point of 115 to 117 °C.

`Nc1ccc2c(n1)CCO2` showed a melting point of 129 to 131 °C.

Consider `CCC1OCc2c1cnc(C)c2O` (stereo not drawn), for which the melting point is 172 °C.

With `Cn1cc(C(=O)O)c(=O)c2cc(Cl)c(N3CCNCC3)cc21`, the melting point was determined as 288 °C.

As for `CC1CC(N)=NN1c1ccc(Cl)cn1` (stereo not drawn), the melting point fell in the range of 168 to 170 °C.

The molecule `CC(C)(CO)Nc1nc2c(s1)CCc1cc(C#N)ccc1-2` displayed a melting point of 121 to 123 °C.

The molecule `COc1cc(Nc2ncc(N)c(-c3ccccc3)n2)cc(OC)c1OC` had a melting point of 149 to 150 °C.

`CCc1nc2cc(C(F)(F)F)c(Cl)cc2n1-c1ccc(CCOC(=O)NS(=O)(=O)c2cccc3c(N(C)C)cccc23)cc1` came in with a melting point of 203 °C.

`CCN(CC)c1ccc(NC(C)=O)c(C)c1` returned a melting point of 114 to 115 °C.

For `CCCn1nc(Cc2ccc(-c3ccccc3-c3nnn(C(c4ccccc4)(c4ccccc4)c4ccccc4)n3)cc2)c(C(=O)OCC)c1C(C)C`, the melting point lay in the range of 158 to 159 °C.

The molecule `COc1cc(-n2cccn2)ccc1-n1cc(OC)c(=O)c(-c2ccnn2-c2cccc(C(F)(F)F)c2)n1` came in with a melting point of 215 to 217 °C.

`CC(=O)NC[C@H]1CN(c2ccc(N3CCC(C#N)(Nc4ccccc4)CC3)c(F)c2)C(=O)O1` gave a melting point of 81 to 85 °C.

`COc1cc(-c2ccccc2)nc(SCC(=O)O)n1`: the melting point lay in the range of 157 to 159 °C.

For `O=Cc1c[nH]nc1-c1ccc([N+](=O)[O-])o1`, the melting point fell in the range of 184 to 186 °C.

For `CC(C)CN(CC(C)C)C(=O)c1ccc(F)c([N+](=O)[O-])c1`, the melting point amounted to 47 °C.

`CCN(CC)c1c(Cl)cc(-n2c(C(F)(F)F)nn(C)c2=S)cc1Cl`: the melting point was in the range of 128 to 130 °C.

As to `CCC1CCCCN1C(=O)C=Cc1c(-c2ccccc2)nn2ccccc12` (stereo not drawn), the melting point was 121 to 122 °C.

On to `O=Cc1c(C#Cc2ccccc2)sc2ccccc12`, for which the melting point is 105 to 106 °C.

Consider `C=CCSc1nc(O)ns1`, for which the melting point stood at 84 °C.

Consider `Cc1cc(C)cc(S(=O)c2cccc(F)c2C#N)c1` (stereo not drawn), for which the melting point was in the range of 146 to 147 °C.

On to `CN(C)CC#CC1=CC[N+]([O-])=C(c2ccccc2)c2cc(Cl)ccc21`, for which the melting point fell in the range of 121 to 123 °C.

Molecule `CC=Cc1cccc(C(=O)C=Cc2ccccc2)c1O` came in with a melting point of 95 to 98 °C.

Turning to `CCOCn1c(Sc2ccc(Cl)c(Cl)c2)cc(C#N)c1-c1ccc(Cl)cc1`, the melting point lay within 95 to 97 °C.

The molecule `CC(C)(C)OC(=O)N1C[C@@H](Sc2ccccc2)C[C@H]1C(=O)O` returned a melting point of 110 to 118 °C.

As for `C#CCc1nc(-c2ccc(C)cc2)oc1C`, the melting point is 65 to 68 °C.

In turn, `COC1=CC(=O)C(OC)=C(CCCCCC2=C(OC)C(=O)C(C)=C(OC)C2=O)C1=O` yielded a melting point of 48 to 49 °C.

These data come from a melting point compilation (Tetko et al.; mined from patent text by program, amines drawn as free bases though some values may be those of a salt).
